In the supplement of paper PMC10307832:

Tests used:
Assay in all cases: relative viability (nuclei count vs DMSO), 5 days (fraction); higher = more cells survive
17-AAG = compound: C=CCNC1=C2C[C@@H](C)C[C@H](OC)[C@H](O)[C@@H](C)/C=C(\C)[C@H](OC(N)=O)[C@@H](OC)/C=C\C=C(/C)C(=O)NC(=CC1=O)C2=O [17-AAG]
How it was run: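 Nuclei counted with MetaXpress define viability as the ratio of treated to vehicle wells, given as a median across plates. The lung cancer cell lines were in 1536-well plates, pinned with five √10-spaced library-drug doses and imaged at 4× after 5 days and Hoechst staining. Plates passed with control CV below 25% and at least one doubling.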

17-AAG + Trametinib = compound: C=CCNC1=C2C[C@@H](C)C[C@H](OC)[C@H](O)[C@@H](C)/C=C(\C)[C@H](OC(N)=O)[C@@H](OC)/C=C\C=C(/C)C(=O)NC(=CC1=O)C2=O [17-AAG] + CC(=O)Nc1cccc(-n2c(=O)n(C3CC3)c(=O)c3c(Nc4ccc(I)cc4F)n(C)c(=O)c(C)c32)c1 [Trametinib] (partner 0.02 µM)
How it was run: (§1)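 Dosing by pin tool came one day after lung cancer cell lines were seeded in 1536-well plates, using either one drug or a fixed anchor-drug dose plus five library-drug doses (not always all listed) in √10 steps. After 5 days, nuclei were counted on 4× images. Relative viability is treated-well nuclei count divided by vehicle-well nuclei count, and values are medians of duplicate plates.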

17-AAG + OSI-027 = compound: C=CCNC1=C2C[C@@H](C)C[C@H](OC)[C@H](O)[C@@H](C)/C=C(\C)[C@H](OC(N)=O)[C@@H](OC)/C=C\C=C(/C)C(=O)NC(=CC1=O)C2=O [17-AAG] + COc1cccc2cc(-c3nc([C@H]4CC[C@H](C(=O)O)CC4)n4ncnc(N)c34)[nH]c12 [OSI-027] (partner 0.5 µM)
How it was run: as §1

17-AAG + Phenformin = compound: C=CCNC1=C2C[C@@H](C)C[C@H](OC)[C@H](O)[C@@H](C)/C=C(\C)[C@H](OC(N)=O)[C@@H](OC)/C=C\C=C(/C)C(=O)NC(=CC1=O)C2=O [17-AAG] + N=C(N)NC(=N)NCCc1ccccc1 [Phenformin] (partner 250 µM)
How it was run: as §1

Cell Line | relative viability (17-AAG; 0.00128 µM) | relative viability (17-AAG; 0.004048 µM) | relative viability (17-AAG; 0.0128 µM) | relative viability (17-AAG; 0.04048 µM) | relative viability (17-AAG; 0.128 µM) | relative viability (17-AAG + Trametinib; first compound 0.00128 µM) | relative viability (17-AAG + Trametinib; first compound 0.004048 µM) | relative viability (17-AAG + Trametinib; first compound 0.0128 µM) | relative viability (17-AAG + Trametinib; first compound 0.04048 µM) | relative viability (17-AAG + Trametinib; first compound 0.128 µM) | relative viability (17-AAG + OSI-027; first compound 0.00128 µM) | relative viability (17-AAG + OSI-027; first compound 0.004048 µM) | relative viability (17-AAG + OSI-027; first compound 0.0128 µM) | relative viability (17-AAG + OSI-027; first compound 0.04048 µM) | relative viability (17-AAG + OSI-027; first compound 0.128 µM) | relative viability (17-AAG + Phenformin; first compound 0.00128 µM) | relative viability (17-AAG + Phenformin; first compound 0.004048 µM) | relative viability (17-AAG + Phenformin; first compound 0.0128 µM) | relative viability (17-AAG + Phenformin; first compound 0.04048 µM) | relative viability (17-AAG + Phenformin; first compound 0.128 µM)
NCI-H647 | 0.985 | 0.779 | 0.135 | 0.108 | 0.091 | 0.402 | 0.29 | 0.0765 | 0.0969 | 0.0756 | 0.585 | 0.553 | 0.187 | 0.0899 | 0.0977 | 0.569 | 0.446 | 0.0903 | 0.103 | 0.103
NCI-H650 | 0.894 | 1.01 | 0.798 | 0.511 | 0.264 | 0.983 | 1.03 | 0.934 | 0.551 | 0.224 | 0.502 | 0.602 | 0.494 | 0.426 | 0.258 | 0.445 | 0.459 | 0.421 | 0.308 | 0.228
NCI-H661 | 0.937 | 0.998 | 0.953 | 0.549 | 0.295 | 0.588 | 0.533 | 0.522 | 0.295 | 0.23 | 0.713 | 0.672 | 0.636 | 0.261 | 0.21 | 0.304 | 0.293 | 0.293 | 0.256 | 0.188
NCI-H727 | 0.989 | 0.922 | 0.858 | 0.5 | 0.344 | 0.356 | 0.409 | 0.319 | 0.237 | 0.221 | 0.602 | 0.573 | 0.506 | 0.359 | 0.24 | 0.535 | 0.445 | 0.475 | 0.287 | 0.277
NCI-H838 | 1.03 | 0.963 | 0.575 | 0.187 | 0.177 | 0.536 | 0.487 | 0.126 | 0.115 | 0.1 | 0.408 | 0.369 | 0.246 | 0.147 | 0.124 | 0.543 | 0.327 | 0.118 | 0.132 | 0.0945
NCI-H1355 | 0.983 | 0.974 | 0.899 | 0.193 | 0.159 | 0.466 | 0.446 | 0.363 | 0.241 | 0.167 | 0.44 | 0.467 | 0.272 | 0.185 | 0.166 | 0.492 | 0.457 | 0.388 | 0.186 | 0.165
NCI-H1395 | 0.79 | 0.818 | 0.648 | 0.388 | 0.342 | 1.09 | 0.984 | 0.807 | 0.448 | 0.368 | 0.634 | 0.619 | 0.467 | 0.377 | 0.277 | 0.449 | 0.425 | 0.4 | 0.358 | 0.324
NCI-H1437 | 1.03 | 0.931 | 0.637 | 0.249 | 0.178 | 0.582 | 0.562 | 0.32 | 0.291 | 0.195 | 0.877 | 0.836 | 0.656 | 0.186 | 0.123 | 0.312 | 0.316 | 0.179 | 0.153 | 0.129
